Assay results published in patent publication US20240336638A1, “IMIDAZOLE COMPOUND, AND INTERMEDIATE AND APPLICATION THEREOF” (priority 2021, published 2024).
Where two headings read alike, the source gives them in different places.

Assays:
[1] = test system: MCAO/R rats; test: Therapeutic administration (i.v.) in middle cerebral artery occlusion/reperfusion (MCAO/R) rats; assay type: in vivo, rat; details: for Bleeding time / Brain water content (%) / Cerebral infarction rate (%) / Clotting time / Neurological function score: once a day for 3 days, mean ± SD, n = 8; for Neurological function score: modified Bederson score
Procedure: Male SD rats weighing 250 to 300 g were taken, and the rats in each group fasted for 12 hours before modeling, while water was not restricted. According to the method of Longa et al.^[1], a rat model of MCAO/R was established by occluding the blood flow of internal carotid artery using the thread embolization method. The rats were anesthetized with 3% chloral hydrate (300 mg/kg, 1 mL/100 g body weight) through intraperitoneal injection and fixed in the supine position on the operating table. A midline incision was made in the neck, and the right common carotid artery was isolated using forceps and threaded for later use. The external and internal carotid arteries were isolated from the bifurcation of the common carotid artery. A single thread was threaded through the internal carotid artery, and two threads were threaded through the external carotid artery. Both distal and proximal ends were ligated, and the middle part of the ligation site was cut using ophthalmic scissors. The proximal main trunk of the external carotid artery was isolated and reserved for later use. The prepared cotton thread was used to half-ligate the common carotid artery (tying a slipknot), and the thread prepared for the internal carotid artery was tightened with hemostatic forceps, temporarily occluding the blood flow of the internal carotid artery. A small incision at the proximal main trunk of the external carotid artery was made using ophthalmic scissors, and then, the fishing line was held with straight forceps, inserted from this incision, and slowly advanced through the isolated proximal main trunk of the external carotid artery towards the intracranial direction of the internal carotid artery. The advancement was stopped at a predetermined position, and then the thread of the internal carotid artery that was tightened with the hemostatic forceps was loosened. […] Another thread was threaded and tightened around the proximal main trunk of the external carotid artery and the fishing line that had already been inserted into the predetermined position. The half-ligated thread on the common carotid artery was then loosened, and the skin was subsequently sutured. After 2 hours of ischemia, a small section of the fishing line was pulled out. […] After rats in the blank control group were anesthetized, only the bifurcation of the internal and external carotid arteries was exposed without the occlusion of the MCA.
Successfully modeled rats (neurological function score of 3 after reperfusion) were taken and divided into 20 groups (8 rats for each) according to the random number table method. The groups were divided into a model control group, three dose groups (high, 12 mg/kg, 2.4 mg/mL; medium, 6 mg/kg, 1.2 mg/mL; low, 3 mg/kg, 0.6 mg/mL) for each of the six test compounds, and a positive drug Ozagrel group (6 mg/kg, 1.2 mg/mL), respectively. Both blank and model control groups were administered equal volumes of mixed solvents, and the rats in each group were administered by tail vein injection (i.v.) 2 hours after reperfusion, once a day for 3 consecutive days, with a volume of 0.5 mL/100 g body weight.
Ten minutes after the last administration, the neurological function of the animals was graded according to the modified Bederson scoring method. The standard is as follows[2]: • 0 point: no neurological symptoms; • 1 point: when the rat is suspended by lifting its tail, the forelimb on the surgical side of the rat was flexed and pressed against the chest wall; • 2 points: on a smooth plane, when the rat is pushed from the surgical side to the opposite side, the resistance is less than when it is moved to the same side; • 3 points: the animal moves around or in circles when moving freely; • 4 points: flaccid paralysis, no spontaneous movement of limbs.
After Bederson scoring, the rats were executed by cervical dislocation, and the whole brain was removed and weighed. After weighing, the whole brain was placed in a −20° C. refrigerator for 20 minutes. […]

[2] = Blood-brain barrier (BBB) study in SD rats after single IV and PO administration, brain; assay type: in vivo; details: rat brain; for Cmax / Tmax / half-life / MRT last / MRT inf: Sprague-Dawley (SD); for MRT last: read-out: MRT(0−t); for MRT inf: read-out: MRT(0−∞)
Procedure: Effect Example 3: Pharmacokinetic and blood-brain barrier (BBB) studies of compounds after single intravenous (IV) and oral (PO) administration in SD rats
(§1) The experimental method of administration by gavage injection in rats: SD rats weighing 180 to 220 g were fasted for 12 hours prior to the experiment, with free access to water. After administration, food and water were withheld for 4 hours. After this 4-hour period, the rats were allowed free access to water, and food was provided after 8 hours. The drugs were administered at a set dose. N=3, blood samples were taken before administration, and 5 minutes, 0.25 hours, 0.5 hours, 0.75 hours, 1 hour, 2 hours, 4 hours, 8 hours, and 24 hours after administration, respectively, and placed into sodium heparin anticoagulant tubes. The tubes were centrifuged for 1 hour at 4° C. and at 8000 rpm for 5 minutes, and the plasma was then separated and stored in centrifuge tubes at −70° C. for analysis.
as §1, with “of intravenous” for “of”, “to” for “by gavage injection in”
The plasma concentration-time data were processed using the Phoenix® WinNonlin® 8.0 program to calculate pharmacokinetic parameters.
Among them, Cmax and Tmax are measured values, the elimination rate constant k of the tail section of the C-t curve is obtained from the linear regression of LnC-t, and the value of AUC0-4 is calculated by the trapezoidal area method, and the area under the curve from 0 to ∞ time is AUC=AUC0-4+Ct/k.

[3] = medium dose 6 mg/kg i.v. (Ozagrel group 6 mg/kg)

Row | Structure (SMILES) | Bleeding time [1, 3] [s] | Brain water content (%) [1, 3] [%] | Cerebral infarction rate (%) [1, 3] [%] | Clotting time [1, 3] [s] | Neurological function score [1, 3] | Cmax ([2]; IV 1 mg/kg) [ng/g] | Tmax ([2]; IV 1 mg/kg) [min] | half-life ([2]; IV 1 mg/kg) [min] | MRT last ([2]; IV 1 mg/kg) [min] | MRT inf ([2]; IV 1 mg/kg) [min] | Cmax ([2]; PO 6 mg/kg) [ng/g] | Tmax ([2]; PO 6 mg/kg) [min] | half-life ([2]; PO 6 mg/kg) [min] | MRT last ([2]; PO 6 mg/kg) [min] | MRT inf ([2]; PO 6 mg/kg) [min] | AUC(0−t) ([2]; IV 1 mg/kg) [ng·h/g] | AUC(0−∞) ([2]; IV 1 mg/kg) [ng·h/g] | AUC(0−t) ([2]; PO 6 mg/kg) [ng·h/g] | AUC(0−∞) ([2]; PO 6 mg/kg) [ng·h/g] | other results
1 | O=C(O)[C@@H]1C[C@H]1c1ccc(Cn2ccnc2)cc1 [Compound 19, (1R,2R)-2-(4-((1H-Imidazol-1-yl)methyl)phenyl)cyclopropane-1-carboxylic acid] | 274.13 ± 47.46 | 81.92 ± 1.66 | 22.38 | 148.63 ± 28.41 | 2.00 ± 0.76 | 36 | 4.8 | 22.8 | 21 | 33.6 | 168 | 15 | 46.2 | 73.2 | 79.2 | 16.44 | 19.83 | 289.35 | 296.91 | Bleeding time ([1]; high dose 12 mg/kg i.v.): 304.75 ± 35.16 s; Brain water content (%) ([1]; high dose 12 mg/kg i.v.): 80.84 ± 1.04%; Cerebral infarction rate (%) ([1]; high dose 12 mg/kg i.v.): 13.48%; Clotting time ([1]; high dose 12 mg/kg i.v.): 151.19 ± 21.35 s; Neurological function score ([1]; high dose 12 mg/kg i.v.): 1.75 ± 0.89; reducing the infarct area (smallest mean infarct rate) ([1]; high doses, comparison among test drugs): more advantageous; cerebral edema in rats ([1]; low and medium doses): did not significantly improve; Bleeding time ([1]; low dose 3 mg/kg i.v.): 272.38 ± 52.89 s; Brain water content (%) ([1]; low dose 3 mg/kg i.v.): 82.40 ± 1.50 %; Cerebral infarction rate (%) ([1]; low dose 3 mg/kg i.v.): 28.23 ± 2.76%; Clotting time ([1]; low dose 3 mg/kg i.v.): 136.25 ± 36.28 s; Neurological function score ([1]; low dose 3 mg/kg i.v.): 2.00 ± 0.53
2 | O=C(O)/C=C/c1ccc(Cn2ccnc2)cc1 [Ozagrel, reference compound] | 300.00 ± 26.93 | 79.73 ± 2.02 | 21.70 | 154.50 ± 16.91 | 1.50 ± 0.93 | 27.6 | 4.8 | 6.6 | 9 | 10.2 | 42.6 | 15 | 24 | 35.4 | 40.8 | 4.96 | 5.25 | 35.86 | 37.46 | –
